Measurements taken from ChEMBL document CHEMBL1201862, “PubChem BioAssay data set” (2004).
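Compound exposure: 48 hours, 5 concentrations, 96-well plates. At the GI50, growth is halved.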 Calls of active or inactive are those of the source. Cut-off read from the data, not from the text of the source: active = GI50 up to about 1.1 µM and inactive = higher.

Experiments:
Test in all cases: NCI tumour cell line growth inhibition, 48 h
[1] = system: KM12
[2] = system: K562
[3] = system: BT-549
[4] = system: COLO 205
[5] = system: 786-0
[6] = system: HT-29
[7] = system: M14
[8] = system: SNB-19
[9] = system: RXF 393
[10] = system: MDA-MB-231
[11] = system: HL-60
[12] = system: Malme-3M
[13] = system: IGROV-1
[14] = system: MCF7
[15] = system: NCI-H460
[16] = system: SF-295
[17] = system: SK-MEL-2
[18] = system: TK-10
[19] = system: HCC 2998
[20] = system: SNB-75

Measured: GI50

COCCOC(=O)c1c(C)[n+]([O-])c2cc(Cl)c(Cl)cc2[n+]1[O-]
inactive: [1] 10.8 µM | [2] 13.7 µM | [3] 19.1 µM | [4] 12.5 µM | [5] 22.6 µM | [6] 18.7 µM | [7] 18.6 µM | [8] 40.8 µM | [9] 30.4 µM | [10] 24.1 µM | [11] 6.41 µM | [12] 18.5 µM | [13] 3.85 µM | [14] 11.1 µM | [15] 7.85 µM | [16] 17.1 µM | [17] 25.3 µM | [18] 23.2 µM

Cc1ccc(/N=N/C(=O)NNc2ccc(C)c([N+](=O)[O-])c2)cc1[N+](=O)[O-]
inactive: [2] 11.9 µM | [3] 30.8 µM | [5] 28.2 µM | [6] 53.2 µM | [7] 40 µM | [19] 17.4 µM | [8] 36.3 µM | [10] 36.6 µM | [11] 17.9 µM | [12] 30.8 µM | [13] 17.7 µM | [14] 23.2 µM | [15] 28.6 µM | [17] 14.2 µM | [18] 45.1 µM | [20] 19.6 µM

COc1ccc2[nH]c(CCNC(=O)c3cc([N+](=O)[O-])cc([N+](=O)[O-])c3)cc2c1
inactive: [1] > 100 µM | [2] > 100 µM | [3] > 100 µM | [4] > 100 µM | [5] 21.2 µM | [6] > 100 µM | [7] > 100 µM | [8] 35.6 µM | [9] 18.1 µM | [10] 25.4 µM | [11] > 100 µM | [12] > 100 µM | [13] 26.5 µM | [14] 69.3 µM | [15] > 100 µM | [17] 65.8 µM | [18] 46.8 µM | [20] 19.4 µM

CCOC(=O)P(=O)(O)c1ccc(N(C)Cc2ccccc2)cc1
inactive: [1] > 100 µM | [2] > 100 µM | [3] > 100 µM | [4] > 100 µM | [5] > 100 µM | [6] > 100 µM | [7] > 100 µM | [19] > 100 µM | [8] > 100 µM | [10] > 100 µM | [11] > 100 µM | [12] > 100 µM | [13] > 100 µM | [14] > 100 µM | [16] > 100 µM | [17] > 100 µM | [18] > 100 µM | [20] > 100 µM
